Several values for one entry are separate records, joined by “and”; a condition that tells them apart may be missing. Identical values can stand only once. Activity calls are given as the source filed them.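 Rule for the calls: active = compounds giving half or more protection of infected cells from virus-caused growth loss, again on retest; inactive = the rest.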
Tested on: CEM cells HIV-1 protection, formazan growth assay
Assay: NCI AIDS Antiviral Assay
Settings: for IC50: measured here: growth of uninfected CEM cells
Outline: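 Human CEM cells, uninfected and HIV-1-infected, exposed to five drug concentrations; growth measured by soluble formazan assay and scored as percent protection from infection, with protecting compounds retested.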

With `CCO[C@]12C[C@H](OC)[C@@]3(O)CC(C1[C@H]3O)C13C4C2[C@H](OC)C1[C@](COC)(CN4CC)[C@H](O)C[C@@H]3OC` (stereo partly specified) the EC50 was > 200 µM and the IC50 was 1.58 µM.
In the case of `O=C(Nc1ccc(Cl)cc1)C1C(=O)C(=O)N(c2ccc(Cl)cc2)C1=O` (stereo unspecified), the outcome is reported as “inactive”.
`CCOC(=O)CCn1ncc(Cl)c(Cl)c1=O` was tested, and the EC50 was > 933 µM and the IC50 was 4.07 µM.
With `N#C[C@@]12CCCC(=O)[C@@H]1[C@H]1CCC[C@H]12` the EC50 was > 200 µM and the IC50 was 77.6 µM.
`CC1=C(C(=O)CC(=O)C(=O)Nc2ccc(C)c(C)c2)Sc2ccccc2N1` was tested, and the EC50 was > 6.92 µM and the IC50 was > 6.92 µM.
`CC(=O)Nc1ccc([As](=O)(O)O)cc1[N+](=O)[O-]` was tested, and the EC50 was > 200 µM and the IC50 was > 200 µM.
For `CC1C(NNc2ccccc2)Oc2cc3c(cc2C1c1ccccc1O)OCO3` (stereo unspecified), the outcome was “inactive”.
With `O=c1[nH]c(=O)n(C2CC(O)C(CO)O2)cc1NN=NCCCc1ccccc1` (stereo unspecified) the EC50 was > 200 µM and the IC50 was > 200 µM.
For `CCOC(=O)C(CCCC(C(=O)OCC)C(=O)OCC)C(=O)OCC`, the EC50 was > 200 µM and the IC50 was > 200 µM.
For `C(#CP(c1ccccc1)c1ccccc1)P(c1ccccc1)c1ccccc1.C(#CP(c1ccccc1)c1ccccc1)P(c1ccccc1)c1ccccc1.C(#CP(c1ccccc1)c1ccccc1)P(c1ccccc1)c1ccccc1.C(#CP(c1ccccc1)c1ccccc1)P(c1ccccc1)c1ccccc1.[Pt].[Pt]`, the EC50 was > 6.92 µM and the IC50 was 4.79 µM.
`CCOC(=O)CC[C@H](NC(=O)c1ccc(CNc2nc3cc(C(F)(F)F)ccc3nc2C(=O)OCC)cc1)C(=O)OCC` was tested, and the EC50 was > 100 µM and the IC50 was > 100 µM.
For `O=[N+]([O-])/C=C1\COCc2cc3c(cc21)OCO3`, the EC50 was > 200 µM and the IC50 was 28.8 µM.
`CC(C)(C)CC(C)(C)SSc1n[nH]c(=S)s1` was tested, and the EC50 was > 200 µM and the IC50 was 17.4 µM.
With `CC(=O)N(C(C)=O)c1ccc(-c2cccs2)oc1=O` the EC50 was > 200 µM and the IC50 was > 200 µM.
For `O=C1C(=Nc2ccccc2)Oc2cc(O)ccc21`, the EC50 was > 200 µM and the IC50 was 17.8 µM.
`O=C1OC2(c3ccccc31)c1ccc(O)c(O)c1Oc1c2ccc(O)c1O` was tested, and the EC50 was > 200 µM and the IC50 was 36.3 µM and 33.1 µM and 9.55 µM.
In the case of `Cc1cc(=O)c2c(o1)C(=O)c1occc1C2=O`, the outcome is reported as “inactive”.
With `O=C1/C(=C/c2ccccc2)CCC/C1=C\c1ccccc1` the EC50 was > 200 µM and the IC50 was 8.13 µM.
`O=c1ccc2cc(O)c(O)cc2o1` was tested, and the EC50 was > 1410 µM and the IC50 was 93.3 µM.
`COC(=O)[C@H](Cc1c[nH]c2ccccc12)NC(=O)OCC1OC(n2cc(C)c(=O)[nH]c2=O)CC1N=[N+]=[N-]` (stereo partly specified) was tested, and the EC50 was > 158 µM and the IC50 was 132 µM.
With `N#Cc1cc2cc3c4c(c2oc1=O)CCCN4CCC3` the EC50 was > 1.95 µM and the IC50 was > 1.95 µM.
For `CC(=O)c1ccc2c(c1)CC1(C2)Cc2ccc3c(c2C1=O)CCC3` (stereo unspecified), the EC50 was > 200 µM and the IC50 was 33.1 µM.
With `CN(C)CCCn1c(-c2cc(C(C)(C)C)c(O)c(C(C)(C)C)c2)csc1=Nc1ccccc1` the EC50 was > 200 µM and the IC50 was 3.55 µM.
`CCC1C2C=CC(CC2)N1S(=O)(=O)c1ccc(C)cc1` (stereo unspecified) was tested, and the EC50 was > 64.6 µM and the IC50 was 36.3 µM.
`CC1=C[C@H]2O[C@@H]3[C@H](O)[C@@H](O)[C@](C)(C2(COC(=O)CCl)CC1)[C@@]31CO1` (stereo partly specified) was tested, and the EC50 was > 6.92 µM and the IC50 was 0.0178 µM.
With `CCn1c(=O)c(N=O)c(N)n(CCO)c1=O` the EC50 was > 200 µM and the IC50 was > 200 µM.
For `O=C1CC(c2ccccc2)=Nc2ccccc2N1`, the EC50 was > 151 µM and the IC50 was > 151 µM.
`O=C(CCc1ccc(O)c(O)c1)NCCc1ccccc1` was tested, and the EC50 was > 200 µM and the IC50 was 21.9 µM.
`Cc1sc2nc3n(c(=O)c2c1C)N=C(c1ccc([N+](=O)[O-])cc1)CS3` was tested, and the EC50 was > 200 µM and the IC50 was > 200 µM.
For `O=C(NNc1ccccc1)NNc1ccccc1` (tested in a mixture with another compound), the EC50 was > 200 µM and the IC50 was 31.6 µM.
For `CC1=NN(C(=O)CC(=O)Nc2cccc(Cl)c2)C(=O)C1N=Nc1ccc(S(N)(=O)=O)cc1` (stereo unspecified), the EC50 was > 55 µM and the IC50 was > 55 µM.
With `C(=C(\C[P+](c1ccccc1)(c1ccccc1)c1ccccc1)c1ccccc1)/c1ccccc1` the EC50 was > 200 µM and the IC50 was 1 µM.
For `N=C(N)SCc1cn2ccccc2n1`, the EC50 was > 891 µM and the IC50 was 50.1 µM.
With `COc1ccc(C(C)=C(C#N)C#N)cc1` the EC50 was > 182 µM and the IC50 was > 182 µM.
In the case of `Nc1cc(N)c(N=Nc2ccc(CCc3ccc(N=Nc4c(N)cc(N)cc4C(=O)O)cc3S(=O)(=O)O)c(S(=O)(=O)O)c2)c(C(=O)O)c1`, the EC50 is reported as > 1020 µM and the IC50 is reported as 174 µM.
For `CCOC(=O)c1ccc(/C(C#N)=C/c2ccc(Cl)cc2)cc1`, the EC50 was > 200 µM and the IC50 was > 200 µM.
For `COc1ccc(C(c2ccccc2)N2C(=O)CCC2C(=O)O)cc1OC` (stereo unspecified), the EC50 was > 200 µM and the IC50 was > 200 µM.
In the case of `CC(=O)Oc1c(C)cc2c(c1C)C(C)CN2C(C)=O` (stereo unspecified), the EC50 is reported as > 200 µM and the IC50 is reported as > 200 µM.
`COc1ccc(CCCNC(=O)Cc2cc(OC)c(OC)cc2CO)cc1OC` was tested, and the EC50 was > 200 µM and the IC50 was 17.8 µM.
`c1cnc2c(c1)-n1cccc1C1(CCSC1)NN2` (stereo unspecified) was tested, and the EC50 was > 138 µM and the IC50 was > 138 µM.
In the case of `CN(C)CCN=C1Nc2ccccc2C(=O)N2CSCC12` (stereo unspecified), the EC50 is reported as > 200 µM and the IC50 is reported as > 200 µM.
For `C#CC1(O)CC[C@H]2[C@@H]3CCC4=CCCC[C@@H]4[C@H]3CC[C@@]21C` (stereo partly specified), the EC50 was > 200 µM and the IC50 was 30.9 µM.

Source: PubChem BioAssay AID179 (DTP/NCI, 2004)
